Patent US8324245B2, “Quinoline derivative and quinazoline derivative inhibiting self-phosphorylation of hepatocytus proliferator receptor, and medicinal composition containing the same” (Kyowa Hakko Kirin Co., Ltd., priority 2001, dated 2012)

Each compound was assayed against T1, met (HGF receptor) in human gastric cancer cells MKN45 (Homo sapiens, UniProt P08581) (assay: Inhibitory activity against met-autophosphorylation using ELISA method (2), MKN45 cells, HGF-independent).
T1 construct: endogenous in cells; host or cells: MKN45 human gastric cancer cells
Type: cell-based
Method in brief: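 Met autophosphorylation was read by sandwich ELISA: phosphotyrosine capture (PY20), anti-HGF receptor detection, peroxidase read-out at 450 nm. Lysates came from MKN45 gastric cancer cells kept in 0.1% FCS RPMI and treated 1 h at 37 °C with test compound, with no added HGF.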

T1 sequence (P08581 25-1390): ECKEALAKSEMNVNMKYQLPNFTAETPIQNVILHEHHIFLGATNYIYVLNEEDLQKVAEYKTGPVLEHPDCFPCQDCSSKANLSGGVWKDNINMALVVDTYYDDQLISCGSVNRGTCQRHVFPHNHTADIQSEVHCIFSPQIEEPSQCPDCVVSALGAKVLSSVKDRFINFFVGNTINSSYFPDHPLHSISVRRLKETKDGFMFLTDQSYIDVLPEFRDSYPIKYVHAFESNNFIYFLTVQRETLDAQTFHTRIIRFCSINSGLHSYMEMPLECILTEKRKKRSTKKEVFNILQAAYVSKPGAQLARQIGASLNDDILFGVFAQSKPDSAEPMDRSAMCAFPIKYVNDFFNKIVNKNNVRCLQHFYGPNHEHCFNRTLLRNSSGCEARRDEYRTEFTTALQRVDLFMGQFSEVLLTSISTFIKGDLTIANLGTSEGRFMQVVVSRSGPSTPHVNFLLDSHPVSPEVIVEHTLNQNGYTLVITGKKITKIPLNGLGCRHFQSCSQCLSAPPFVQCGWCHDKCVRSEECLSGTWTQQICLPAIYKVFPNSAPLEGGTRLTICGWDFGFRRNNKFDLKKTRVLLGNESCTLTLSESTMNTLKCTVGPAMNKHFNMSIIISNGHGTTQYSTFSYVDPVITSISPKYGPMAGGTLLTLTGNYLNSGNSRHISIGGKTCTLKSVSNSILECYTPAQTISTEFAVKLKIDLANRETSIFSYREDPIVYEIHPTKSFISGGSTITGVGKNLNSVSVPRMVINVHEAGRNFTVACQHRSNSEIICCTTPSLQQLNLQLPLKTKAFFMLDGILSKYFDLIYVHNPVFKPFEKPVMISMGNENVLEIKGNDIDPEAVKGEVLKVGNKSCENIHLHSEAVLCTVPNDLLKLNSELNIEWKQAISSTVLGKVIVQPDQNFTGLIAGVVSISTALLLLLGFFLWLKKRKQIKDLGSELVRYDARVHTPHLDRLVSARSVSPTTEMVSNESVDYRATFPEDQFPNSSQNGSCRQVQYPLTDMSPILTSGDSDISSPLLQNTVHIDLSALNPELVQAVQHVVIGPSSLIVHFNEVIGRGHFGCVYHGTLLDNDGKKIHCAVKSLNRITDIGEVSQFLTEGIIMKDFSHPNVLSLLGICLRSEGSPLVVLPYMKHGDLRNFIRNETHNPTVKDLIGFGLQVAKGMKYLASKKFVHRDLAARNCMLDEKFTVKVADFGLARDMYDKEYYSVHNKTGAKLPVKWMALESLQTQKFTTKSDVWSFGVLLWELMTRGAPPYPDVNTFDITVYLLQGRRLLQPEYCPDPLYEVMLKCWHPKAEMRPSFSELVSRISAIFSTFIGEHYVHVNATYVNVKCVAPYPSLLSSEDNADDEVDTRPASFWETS

Row | IC50 [nM] | SMILES
1 | 261 | COc1cc2nccc(Oc3ccc(NC(=O)NC(=O)Cc4cc(F)ccc4F)cc3F)c2cc1OC [Example 133, 1-[2-(2,5-difluorophenyl)acetyl]-3-[4-(6,7-dimethoxyquinolin-4-yloxy)-3-fluorophenyl]urea]
2 | 687 | COc1cc2nccc(Oc3ccc(NC(=S)NC(=O)CC4CCC(C)CC4)cc3F)c2cc1OC (stereo not drawn) [Example 192, 1-[4-(6,7-dimethoxyquinolin-4-yloxy)-3-fluorophenyl]-3-[2-(4-methyl-cyclohexyl)acetyl]thiourea]
3 | 330 | COc1cc2nccc(Oc3ccc(NC(=O)NC(=O)CC4C5CCC4CC5)c(F)c3)c2cc1OC (stereo not drawn) [Example 126, 1-(2-bicyclo[2.2.1]hepto-7-ylacetyl)-3-[4-(6,7-dimethoxyquinolin-4-yloxy)-2-fluorophenyl]urea]
4 | 1210 | COc1cc2nccc(Oc3ccc(NC(=S)NC(=O)c4ccccc4Br)cc3F)c2cc1OC [Example 146, 1-(2-bromobenzoyl)-3-[4-(6,7-dimethoxy-quinolin-4-yloxy)-3-fluorophenyl]thiourea]
5 | 851 | COc1cc2nccc(Oc3ccc(NC(=O)NC(=O)Nc4ccc(Cl)cc4C)cc3)c2cc1OC [Example 242, N-(4-chloro-2-methylphenyl)-({[4-(6,7-dimethoxyquinolin-4-yloxy)anilino]carbonyl}amino)-methanamide]
6 | 113 | COc1cc2nccc(Oc3ccc(NC(=S)NC(=O)CC4CCCCC4)cc3)c2cc1OC [Example 61, 1-(2-cyclohexylacetyl)-3-[4-(6,7-dimethoxy-quinolin-4-yloxy)phenyl]thiourea]
7 | 1280 | COc1cc2nccc(Oc3ccc(NC(=S)NC(=O)C4C[C@@H]4c4ccccc4)cc3)c2cc1OC (stereo in doubt) [Example 150, 1-[4-(6,7-dimethoxyquinolin-4-yloxy)phenyl]-3-(2-phenylcyclopropanecarbonyl)thiourea]
8 | 19.5 | CCN(CC)CCCOc1cc2nccc(Oc3ccc(NC(=O)NC(=O)Cc4ccccc4)cc3F)c2cc1OC [Example 291, 1-{4-[7-(3-Diethylamino-propoxy)-6-methoxy-quinolin-4-yloxy]-3-fluoro-phenyl}-3-phenylacetyl-urea]
9 | 259 | COc1cc2nccc(Oc3ccc(NC(=O)NC(=O)Nc4c(F)cccc4F)cc3)c2cc1OC [Example 265, N-(2,6-difluorophenyl)-({[4-(6,7-dimethoxy-quinolin-4-yloxy)anilino]carbonyl}amino)methanamide]
10 | 48.8 | COc1cc2nccc(Oc3ccc(NC(=S)NC(=O)Cc4ccsc4)cc3F)c2cc1OC [Example 85, 1-[4-(6,7-dimethoxyquinolin-4-yloxy)-3-fluoro-phenyl]-3-(2-thiophen-3-ylacetyl)thiourea]
11 | 188 | COc1cc2c(Oc3ccc(NC(=S)NC(=O)Cc4ccccc4Cl)cc3F)ccnc2cc1OCC(O)CN1CCCCC1 (stereo not drawn) [Example 316, 1-[2-(2-Chloro-phenyl)-acetyl]-3-{3-fluoro-4-[7-(2-hydroxy-3-piperidin-1-yl-propoxy)-6-methoxy-quinolin-4-yloxy]-phenyl}-thiourea]
12 | 15.3 | COc1cc2nccc(Oc3c(Cl)cc(NC(=S)NC(=O)Cc4ccccc4)cc3Cl)c2cc1OC [Example 70, 1-[3,5-dichloro-4-(6,7-dimethoxyquinolin-4-yloxy)phenyl]-3-phenylacetylthiourea]
13 | 252 | COc1cc2nccc(Oc3ccc(NC(=S)NC(=O)Cc4ccc(Cl)cc4)c(F)c3)c2cc1OC [Example 188, 1-[2-(4-chlorophenyl)acetyl]-3-[4-(6,7-dimethoxyquinolin-4-yloxy)-2-fluorophenyl]thiourea]
14 | 30.8 | COc1cc2nccc(Oc3ccc(NC(=O)CC(=O)Nc4ccccc4)cc3)c2cc1OC [Example 100, N-[4-(6,7-dimethoxyquinolin-4-yloxy)phenyl]-N′-phenylmalonamide]
15 | 24 | COc1cc2c(Oc3ccc(NC(=S)NC(=O)Cc4ccccc4)cc3F)ccnc2cc1OCCN1CCCN(C)CC1 [Example 273, 1-(3-Fluoro-4-{6-methoxy-7-[2-(4-methyl-[1,4]diazepan-1-yl)-ethoxy]-3-quinolin-4-yloxy}-phenyl)-3-phenylacetyl-thiourea]
16 | 306 | COc1cc2nccc(Oc3ccc(NC(=S)NC(=O)Cc4ccc(C)cc4)cc3)c2cc1OC [Example 168, 1-[4-(6,7-dimethoxyquinolin-4-yloxy)phenyl]-3-(2-p-tolylacetyl)thiourea]
17 | 162 | COc1cc2nccc(Oc3ccc(NC(=O)NC(=O)Cc4ccccc4F)cc3Cl)c2cc1OC [Example 28, 1-[3-chloro-4-(6,7-dimethoxyquinolin-4-yloxy)-phenyl]-3-[2-(2-fluorophenyl)acetyl]urea]

Row | IC50 [nM] | SMILES
18 | 928 | CCCCNC(=O)CC(=O)Nc1ccc(Oc2ccnc3cc(OC)c(OC)cc23)cc1 [Example 209, N-butyl-N′-[4-(6,7-dimethoxyquinolin-4-yloxy)phenyl]malonamide]
19 | 442 | COc1cc2nccc(Oc3ccc(NC(=O)NC(=O)CN4CCCc5cc(C)ccc54)c(F)c3)c2cc1OC [Example 119, 1-[4-(6,7-dimethoxyquinolin-4-yloxy)-2-fluorophenyl]-3-[2-(6-methyl-3,4-dihydro-2H-quinolin-1-yl)acetyl]urea]
20 | 269 | COc1cc2nccc(Oc3ccc(NC(=O)NC(=O)Nc4cccc5ncccc45)cc3)c2cc1OC [Example 262, N-(5-quinolyl)-({[4-(6,7-dimethoxyquinolin-4-yloxy)anilino]carbonyl}amino)methanamide]
21 | 33.6 | COc1cc2nccc(Oc3ccc(NC(=S)NC(=O)Cc4cccc(F)c4)cc3F)c2cc1OC [Example 75, 1-[4-(6,7-dimethoxyquinolin-4-yloxy)-3-fluoro-phenyl]-3-[2-(3-fluorophenyl)acetyl]thiourea]
22 | 365 | COc1cc2nccc(Oc3ccc(NC(=O)NC(=O)Nc4ccc([N+](=O)[O-])cc4)cc3)c2cc1OC [Example 254, N-(4-nitrophenyl)-({[4-(6,7-dimethoxy-quinolin-4-yloxy)anilino]carbonyl}amino)methanamide]
23 | 20.1 | COc1cc2c(Oc3ccc(NC(=S)NC(=O)Cc4ccccc4)cc3F)ccnc2cc1OCCCN1CCC(CO)CC1 [Example 309, 1-(3-Fluoro-4-{7-[3-(4-hydroxymethyl-piperidin-1-yl)-propoxy]-6-methoxy-quinolin-4-yloxy}-phenyl)-3-phenylacetyl-thiourea]
24 | 243 | COc1cc2nccc(Oc3ccc(NC(=O)NC(=O)Cc4cccc(F)c4F)cc3F)c2cc1OC [Example 139, 1-[2-(2,3-difluorophenyl)acetyl]-3-[4-(6,7-dimethoxyquinolin-4-yloxy)-3-fluorophenyl]urea]
25 | 281 | COc1cc2nccc(Oc3ccc(NC(=O)C(C)C(=O)Nc4ccccc4)cc3)c2cc1OC (stereo not drawn) [Example 225, N-[4-(6,7-dimethoxyquinolin-4-yloxy)phenyl]-2-methyl-N′-phenylmalonamide]
26 | 319 | COc1cc2nccc(Oc3ccc(NC(=O)NC(=O)CC4C5CCC4CC5)cc3F)c2cc1OC (stereo not drawn) [Example 127, 1-(2-bicyclo[2.2.1]hepto-7-ylacetyl)-3-[4-(6,7-dimethoxyquinolin-4-yloxy)-3-fluorophenyl]urea]
27 | 37.6 | COc1cc2nccc(Oc3ccc(NC(=S)NC(=O)Cc4c(Cl)cccc4Cl)cc3F)c2cc1OC [Example 97, 1-[2-(2,6-dichlorophenyl)acetyl]-3-[4-(6,7-dimethoxyquinolin-4-yloxy)-3-fluorophenyl]thiourea]
28 | 42.7 | COc1cc2c(Oc3ccc(NC(=O)NC(=O)Cc4ccccc4)cc3F)ccnc2cc1O [Example 106, N-{3-Fluoro-4-[(7-hydroxy-6-methoxy-4-quinolyl)-oxy]phenyl}-N′-(2-phenylacetyl)urea]
29 | 221 | COc1cc2nccc(Oc3ccc(NC(=O)CC(=O)NCCC(C)(C)C)cc3)c2cc1OC [Example 221, N-[4-(6,7-dimethoxyquinolin-4-yloxy)phenyl]-N′-(3,3-dimethyl-butyl)malonamide]
30 | 2770 | COc1cc2nccc(Oc3ccc(NC(=O)C(OC)C(=O)Nc4ccc(F)cc4F)cc3)c2cc1OC (stereo not drawn) [Example 103, N-(2,4-difluorophenyl)-N′-[4-(6,7-dimethoxy-quinolin-4-yloxy)phenyl]-2-methoxymalonamide]
31 | 305 | COc1cc2nccc(Oc3ccc(NC(=S)NC(=O)Cc4ccccc4C(F)(F)F)c(F)c3)c2cc1OC [Example 200, 1-[4-(6,7-dimethoxyquinolin-4-yloxy)-2-fluorophenyl]-3-[2-(2-trifluoromethylphenyl)acetyl]-thiourea]
32 | 338 | COc1cc2nccc(Oc3ccc(NC(=O)NC(=O)CN4CCc5ccccc54)c(F)c3)c2cc1OC [Example 121, 1-[2-(2,3-dihydro-1H-1-indol-1-yl)acetyl]-3-[4-(6,7-dimethoxyquinolin-4-yloxy)-2-fluorophenyl]urea]
33 | 258 | COc1cc2nccc(Oc3ccc(NC(=S)NC(=O)Cc4ccc(Cl)cc4)cc3)c2cc1OC [Example 187, 1-[2-(4-chlorophenyl)acetyl]-3-[4-(6,7-dimethoxyquinolin-4-yloxy)phenyl]thiourea]
34 | 20.6 | COc1cc2c(Oc3ccc(NC(=S)NC(=O)Cc4ccc(F)cc4)cc3F)ccnc2cc1OCC(O)CN1CCCC1 (stereo not drawn) [Example 330, 1-{3-Fluoro-4-[7-(2-hydroxy-3-pyrrolidin-1-yl-propoxy)-6-methoxy-quinolin-4-yloxy]-phenyl}-3-[2-(4-fluoro-phenyl)-acetyl]-thiourea]

Row | SMILES | IC50 [nM]
35 | COc1cc2c(Oc3ccc(NC(=O)NC(=O)Cc4ccc(F)cc4)c(F)c3)ccnc2cc1OCCCCN1CCOCC1 [Example 44, 1-{2-fluoro-4-[6-methoxy-7-(4-morpholin-4-yl-butoxy)quinolin-4-yloxy]phenyl}-3-[2-(4-fluorophenyl)-acetyl]urea] | 291
36 | CCCCOCC(=O)NC(=S)Nc1ccc(Oc2ccnc3cc(OC)c(OC)cc23)c(F)c1 [Example 167, 1-(2-butoxyacetyl)-3-[4-(6,7-dimethoxy-quinolin-4-yloxy)-3-fluorophenyl]thiourea] | 259
